Reference: paper PMC2009384, “The carcinogenicity of polycyclic hydrocarbon epoxides in newborn mice” (British Journal of Cancer, 1975)

Tested on: newborn Swiss mice
Assay: Experiment II: carcinogenicity in newborn mice, chrysene, 7-methylbenz(a)anthracene and K region epoxides (s.c. injection, tumour incidence to 70-75 weeks)
Conditions: for effect on the incidence of liver, lung or other tumours: in the doses tested (3 x 100 µg or 1 x 60 µg)
Excerpt: Br. J. Cancer (1975) 31, 182 THE CARCINOGENICITY OF POLYCYCLIC HYDROCARBON EPOXIDES IN NEWBORN MICE P. L. GROVER, P. SIMS, B. C. V. MITCHLEY AND F. J. C. ROE From the Chester Beatty Research Institute, Institute of Cancer Research, Royal Cancer Hospital, Fulham Road, London, SW3 6JB Received 9 August 1974. […] THE HYPOTHESIS that the carcino- genicity of polycyclic hydrocarbons is associated with the formation of epoxide metabolites (Grover, Hewer and Sims, 1971, 1972; Keysell et al., 1973) is sup- ported by some experimental evidence but remains unproven. […] The epoxides can also act as alkylating agents (Grover and Sims, 1970) and as mutagens (Ames, Sims and Grover, 1972; Huberman et al., 1971; Cookson, Sims and Grover, 1971; Fahmy and Fahmy, 1973). […] The newborn mouse, which is susceptible to carcinogenic polycyclic hydrocarbons (Roe, Rowson and Salaman, 1961; Roe, Mitchley and Walters, 1963; Walters and Roe, 1964, 1966) can be considered as a convenient source of several types of rapidly dividing cells. Consequently we have tested the K region epoxides derived from phenanthrene, benz(a)anthracene, 7-methylbenz(a)anthracene, dibenz(a,h)- anthracene, chrysene and 3-methylchol- anthrene, together with some of the CARCINOGENICITY OF POLYCYCLIC HYDROCARBON EPOXIDES IN MICE 183 parent hydrocarbons, for carcinogenicity using newborn mice. This paper presents the results that were obtained in these experiments. MATERIALS AND METHODS The polycyclic hydrocarbon epoxides, phenanthrene 9,10-oxide, benz(a)anthracene 5,6-oxide, 7-methylbenz(a)anthracene 5,6- oxide, dibenz(a,h)anthracene 5,6-oxide, chry- sene 5,6-oxide and 3-methylcholanthrene 11,12-oxide were prepared from the parent hydrocarbons (Newman and Blum, 1964; Boyland and Sims, 1965; Sims 1966). Two experiments were undertaken fol- lowing similar protocols. For each experi- ment Swiss mice from a specific pathogen- free colony were time mated so as to produce a large number of litters over the course of 2 or 3 days. […] Test compounds were suspended in poly- ethylene glycol (PEG) 400 and injections of 0-02 ml of the suspension were given by introducing a 25 gauge hypodermic needle through the skin near the root of the tail and threading it subcutaneously to deliver the injected material in the interscapular region. Injections were given to every mouse on the first day or first 3 days of life. The details of treatments and numbers of mice of each sex in each group are shown in Table I (Experiment I) and Table II (Ex- periment II). Surviving mice were weaned when they w ere 21 days old. Thereafter, males and females w ere separated and housed 6 per cage in metal boxes. A mixture of sawdust and wood shavings was used as bedding. The mice were fed on a standard cubed diet (Formulation 86 from C. Holdman and Sons (Plow co Feeds), Byers Lane, South Godstone, Surrey) and water was given ad libitum. Mice were inspected daily, and at weekly intervals they were weighed and palpated for tumours and other lesions. […] The experiment was terminated when surviving mice were between 70 and 75 weeks old. A full routine post- mortem examination, which included disten- sion of the urinary bladder with fixative, was carried out. The number of lesions thought to be neoplasms and the size of the largest such lesion in each organ affected were recorded. All tissues with suspected neoplasms were fixed in Bouin's solution. Haematoxylin and eosin stained 5 µm paraffin wax sections were prepared and examined microscopically. RESULTS The results of the two experiments in terms of tumour incidence are sum- marized in […].

[1] = females, 60 µg, 1 treatment (Day 0 only) s.c. in PEG 400
[2] = males, 60 µg, 1 treatment (Day 0 only) s.c. in PEG 400
[3] = females, 100 µg per treatment, 3 treatments
[4] = females, 100 µg per treatment, 3 treatments (Days 0, 1 and 2) s.c. in PEG 400
[5] = males, 100 µg per treatment, 3 treatments
[6] = males, 100 µg per treatment, 3 treatments (Days 0, 1 and 2) s.c. in PEG 400

SMILES: c1ccc2c(c1)-c1cc3ccc4ccccc4c3cc1C1OC21 (stereo not drawn) [Dibenz(a,h)anthracene 5,6-oxide]
- No. of mice examined at p.m. at termination of experiment (70-75th week) with liver tumours (females, 60 µg, 1 treatment): 0
- No. of mice examined at p.m. at termination of experiment (70-75th week) with lung tumours (females, 60 µg, 1 treatment): 1
- No. of mice examined at p.m. at termination of experiment (70-75th week) with multiple liver tumours (females, 60 µg, 1 treatment): 0
- No. of mice examined at p.m. at termination of experiment (70-75th week) with multiple lung tumours (females, 60 µg, 1 treatment): 0
- No. of mice examined at p.m. at termination of experiment (70-75th week) with other tumours (females, 60 µg, 1 treatment): 1
- No. of mice examined at p.m. from 50-70th week with liver tumours (females, 60 µg, 1 treatment): 0
- No. of mice examined at p.m. from 50-70th week with lung tumours (females, 60 µg, 1 treatment): 0
- No. of mice examined at p.m. from 50-70th week with other tumours (females, 60 µg, 1 treatment): 0
- No. of survivors at 50 weeks [1]: 20
- No. of survivors at 70 weeks [1]: 19
- effect on the incidence of liver, lung or other tumours: without apparent effect
- No. of mice examined at p.m. at termination of experiment (70-75th week) with liver tumours (males, 60 µg, 1 treatment): 2
- No. of mice examined at p.m. at termination of experiment (70-75th week) with lung tumours (males, 60 µg, 1 treatment): 0
- No. of mice examined at p.m. at termination of experiment (70-75th week) with multiple liver tumours (males, 60 µg, 1 treatment): 1
- No. of mice examined at p.m. at termination of experiment (70-75th week) with multiple lung tumours (males, 60 µg, 1 treatment): 0
- No. of mice examined at p.m. at termination of experiment (70-75th week) with other tumours (males, 60 µg, 1 treatment): 0
- No. of mice examined at p.m. from 50-70th week with liver tumours (males, 60 µg, 1 treatment): 0
- No. of mice examined at p.m. from 50-70th week with lung tumours (males, 60 µg, 1 treatment): 0
- No. of mice examined at p.m. from 50-70th week with other tumours (males, 60 µg, 1 treatment): 0
- No. of survivors at 50 weeks [2]: 19
- No. of survivors at 70 weeks [2]: 16

SMILES: c1ccc2c(c1)-c1ccccc1C1OC21 (stereo not drawn) [phenanthrene 9,10-oxide]
- No. of mice examined at p.m. at termination of experiment (70-75th week) with liver tumours [3]: 2
- No. of mice examined at p.m. at termination of experiment (70-75th week) with lung tumours [3]: 0
- No. of mice examined at p.m. at termination of experiment (70-75th week) with multiple liver tumours [3]: 1
- No. of mice examined at p.m. at termination of experiment (70-75th week) with multiple lung tumours [3]: 0
- No. of mice examined at p.m. at termination of experiment (70-75th week) with other tumours [3]: 0
- No. of mice examined at p.m. from 50-70th week with liver tumours [3]: 0
- No. of mice examined at p.m. from 50-70th week with lung tumours [3]: 0
- No. of mice examined at p.m. from 50-70th week with other tumours [3]: 0
- No. of survivors at 50 weeks [4]: 13
- No. of survivors at 70 weeks [4]: 13
- effect on the incidence of liver, lung or other tumours: no effect
- No. of mice examined at p.m. at termination of experiment (70-75th week) with liver tumours [5]: 4
- No. of mice examined at p.m. at termination of experiment (70-75th week) with lung tumours [5]: 2
- No. of mice examined at p.m. at termination of experiment (70-75th week) with multiple liver tumours [5]: 1
- No. of mice examined at p.m. at termination of experiment (70-75th week) with multiple lung tumours [5]: 1
- No. of mice examined at p.m. at termination of experiment (70-75th week) with other tumours [5]: 0
- No. of mice examined at p.m. from 50-70th week with liver tumours [5]: 0
- No. of mice examined at p.m. from 50-70th week with lung tumours [5]: 0
- No. of mice examined at p.m. from 50-70th week with other tumours [5]: 0
- No. of survivors at 50 weeks [6]: 19
- No. of survivors at 70 weeks [6]: 17
